This assay concerns ornithine decarboxylase (ODC). Nature of the assay: ODC assay: inhibition of TPA induction of ornithine decarboxylase (retinoid-like activity). The format is biochemical. Conditions: concentration of the test compound which causes 80% inhibition in the ODC assay (TPA-induced ODC). The source says: The retinoic acid-like activity of these compounds is confirmed through the classic measure of retinoic acid activity involving the effects of retinoic acid on ornithine decarboxylase. The original work on the correlation between retinoic acid and decrease in cell proliferation was done by Verma & Boutwell, Cancer Research, 1977, 37,2196-2201. That reference discloses that ornithine decarboxylase (ODC) activity increased precedent to polyamine biosynthesis. It has been established elsewhere that increases in polyamine synthesis can be correlated or associated with cellular proliferation. Thus, if ODC activity could be inhibited, cell hyperproliferation could be modulated. Although all cases for ODC activity increases are unknown, it is known that 12-0-tetradecanoylphorbol-13-acetate (TPA) induces ODC activity. Retinoic acid inhibits this induction of ODC activity by TPA. […] Activity of exemplary compounds of the present invention in the above-described ODC assay is disclosed in Table 2 which provides the IC80 concentration for the respective exemplary compound. ("IC80 " is that concentration of the test compound which causes 80% inhibition in the ODC assay. By analogy, "IC60, for example, is that concentration of the test compound which causes 60% inhibition in the ODC assay.)

`CCOC(=O)c1ccc(C#Cc2ccc3c(c2)C(C)(C)CC[C@@H]3O[C@@H]2CCCCO2)cc1` (relative stereo) [Compound 13, Ethyl 4-[[5,6,7,8-tetrahydro-5(SR)-(2'(RS)-tetrahydropyranyloxy)-8,8-dimethylnaphth-2-yl]ethynyl]benzoate] gave an IC80 conc of 7.29 nmols.

In the case of `CCOC(=O)c1ccc(C#Cc2ccc3c(c2)C(C)(C)CC[C@@H]3O[C@H]2CCCCO2)cc1` (relative stereo) [Compound 14], the IC80 conc stood at 2.80 nmols.

Regarding `CCOC(=O)c1ccc(C#Cc2ccc3c(c2)[C@H](O[C@@H]2CCCCO2)CCC3(C)C)cc1` (relative stereo) [Compound 15, Ethyl 4-[[5,6,7,8-tetrahydro-5 (RS)-(2'(RS)-tetrahydropyranyloxy)-8,8-dimethylnaphth-3-yl]ethynyl]benzoate], the IC80 conc worked out at 0.09 nmols. With `CCOC(=O)c1ccc(C#Cc2ccc3c(c2)[C@H](O[C@H]2CCCCO2)CCC3(C)C)cc1` (relative stereo) [Compound 16, Ethyl 4-[[5,6,7,8-tetrahydro-5(RS)-(2'(SR)-tetrahydropyranyloxy)-8,8-dimethylnaphth-3-yl]ethynyl]benzoate] the figure was 0.60 nmols. Next, `CCOC(=O)c1ccc(C#Cc2ccc3c(c2)[C@H](O[C@@H]2CCCCO2)CCC3(C)C)nc1` (relative stereo) [Compound 17, Ethyl 6-[[5,6,7,8-tetrahydro-5(RS)-(2'(RS)-tetrahydropyranyloxy)-8,8-dimethylnaphth-3-yl]ethynyl]nicotinate]: 0.35 nmols; `CCOC(=O)c1ccc(C#Cc2ccc3c(c2)[C@H](O[C@H]2CCCCO2)CCC3(C)C)nc1` (relative stereo) [Compound 18]: 2.20 nmols. Next, `CC1(C)CC[C@H](O[C@@H]2CCCCO2)c2ccc(C#Cc3ccc(C(=O)O)cc3)cc21` (relative stereo) [Compound 32, 4-[[5,6,7,8-tetrahydro-5(SR)-(2'(RS)-tetrahydropyranyloxy)-8,8-dimethylnaphth-2-yl]ethynyl]benzoic acid]: 4.20 nmols. As to `CC1(C)CC[C@@H](O[C@@H]2CCCCO2)c2cc(C#Cc3ccc(C(=O)O)cc3)ccc21` (relative stereo) [Compound 33], the IC80 conc is listed as 0.08 nmols.

`CC1(C)CC[C@@H](O[C@H]2CCCCO2)c2cc(C#Cc3ccc(C(=O)O)cc3)ccc21` (relative stereo) [Compound 34, 4-[[5,6,7,8-tetrahydro-5(RS)-(2'(SR)-tetrahydropyranyloxy)-8,8-dimethylnaphth-3-yl]ethynyl]benzoic acid] displayed an IC80 conc of 2.30 nmols. `CC1(C)CC[C@H](O[C@H]2CCCCO2)c2ccc(C#Cc3ccc(C(=O)O)cc3)cc21` (relative stereo) [Compound 35] had an IC80 conc below 3 nmols. Molecule `CC1(C)CC[C@@H](O[C@@H]2CCCCO2)c2cc(C#Cc3ccc(C(=O)O)cn3)ccc21` (relative stereo) [Compound 36] registered an IC80 conc of 18.70 nmols.

`CCOC(=O)c1ccc(C#Cc2ccc3c(c2)C(OC2CCCCC2)CCC3(C)C)cc1` (stereo not drawn) [Compound 6, Ethyl 4-[(5-cyclohexyloxy-5,6,7,8-tetrahydro-8,8-di-methyl-naphth-3-yl)ethynyl]benzoate] came in with an IC80 conc of 3.83 nmols. For `CCOC(=O)c1ccc(C#Cc2ccc3c(c2)C(C)(C)CCC3O)cc1` (stereo not drawn) [Compound 9, Ethyl 4-[(5,6,7,8-tetrahydro-5-hydroxy-8,8-dimethyl-naphth-2-yl)ethynyl]benzoate], the IC80 conc was found to be 0.91 nmols.

`CCOC(=O)c1ccc(C#Cc2ccc3c(c2)C(O)CCC3(C)C)cc1` (stereo not drawn) [Compound 10, Ethyl 4-[(5,6,7,8-tetrahydro-5-hydroxy-8,8-dimethylnaphth-3-yl)ethynyl]benzoate] came in with an IC80 conc of 3.18 nmols. Next, `CCOC(=O)c1ccc(C#Cc2ccc3c(c2)C(OCOC)CCC3(C)C)cc1` (stereo not drawn) [Compound 12]: 0.40 nmols; `CC1(C)CCC(O)c2cc(C#Cc3ccc(C(=O)O)cc3)ccc21` (stereo not drawn) [Compound 41, 4-[(5,6,7,8-tetrahydro-5-hydroxy-8,8-dimethylnaphth-3-yl)ethynyl]benzoic acid]: 9.30 nmols. With `CC1(C)CCC(O)c2ccc(C#Cc3ccc(C(=O)O)cc3)cc21` (stereo not drawn) [Compound 42, 4-[(5,6,7,8-tetrahydro-5-hydroxy-8,8-dimethylnaphth-2-yl)ethynyl]benzoic acid] the figure was 0.66 nmols. Next, `COCOC1CCC(C)(C)c2ccc(C#Cc3ccc(C(=O)O)cc3)cc21` (stereo not drawn) [Compound 43]: 0.81 nmols.

Molecule `CCOC(=O)c1ccc(C#Cc2ccc3c(c2)C(C)(C)CCC3(C#N)O[Si](C)(C)C)cc1` (stereo not drawn) [Compound 107, Ethyl 4-[(5-cyano-5,6,7,8-tetrahydro-8,8-dimethyl-5-trimethylsiloxynaphth-2-yl)ethynyl]benzoate] yielded an IC80 conc of 1.43 nmols.

In turn, `CCOC(=O)c1ccc(C#Cc2ccc3c(c2)C(C)(C)CCC3O[Si](C)(C)C)cc1` (stereo not drawn) [Compound 111, Ethyl 4-[(5,6,7,8-tetrahydro-8,8-dimethyl-5-trimethylsiloxynaphth-2-yl)ethynyl]benzoate] gave an IC80 conc of 3.40 nmols.

Molecule `CCOC(=O)CC1(O)CCC(C)(C)c2cc(C#Cc3ccc(C(=O)OCC)cc3)ccc21` (stereo not drawn) [Compound 113, Ethyl 4-[(5,6,7,8-tetrahydro-5-hydroxy-8,8-dimethyl-5-carboethoxymethylnaphth-2-yl)ethynyl]benzoate] came in with an IC80 conc of 1.33 nmols. Regarding `CCOC(=O)CC1(O)CCC(C)(C)c2cc(C#Cc3ccc(C(=O)OCC[Si](C)(C)C)cc3)ccc21` (stereo not drawn) [Compound 117, Trimethylsilylethyl 4-[(5,6,7,8-tetrahydro-5-hydroxy-8,8-dimethyl-5-carboethoxymethylnaphth-2-yl)ethynyl]benzoate], the IC80 conc is 8.60 nmols. Take `CCOC(=O)CC1(O)CCC(C)(C)c2ccc(C#Cc3ccc(C(=O)OCC)cc3)cc21` (stereo not drawn) [Compound 119, Ethyl 4-[(5-hydroxy-8,8-dimethyl-5-carhoethoxymethyl-5,6,7,8-tetrahydronapth-3-yl)ethynyl]benzoate]: the IC80 conc turned out to be 1.0 nmols. With `CCOC(=O)c1ccc(C#Cc2ccc3c(c2)C(C)(C)CCC3SC(C)=O)cc1` (stereo not drawn) [Compound 143, Ethyl 4-[(5,6,7,8-tetrahydro-8,8-dimethyl-5-thioacetylnaphth-2-yl)ethynyl]benzoate] the figure was 0.15 nmols.

Values taken from patent US5654469A, “Acetylenes disubstituted with a 5 substituted tetrahydronaphthyl group and with an aryl or heteroaryl groups having retinoid-like biological activity” (Allergan, priority 1996, dated 1997).
